Counter-ions that a name gives are not always drawn.
Columns and labels:
[1] = tested on: human ovarian cancer cell line A2780; assay: Cell viability, SRB assay, 3 days, A2780; type: cell-based; parameters: unit not given here; conditions: A2780, 3 days
Protocol: All cells were maintained at 37° C. The cytotoxic effects of cysteamine, bromelain and the chemotherapeutic agent cisplatin were assessed. Each agent was administered to the cells either alone or in combination with either or both of the other agents. All cells were treated for 72 hours with the reagents and the cell populations were assessed using the SRB assay. Where possible, IC50 and ICmax were calculated. […] Cells were subjected to various treatment regimens as indicated for 3 days before SRB assays were performed.

[2] = tested on: human colorectal cancer cell line HT295M12; assay: Cell viability, SRB assay, 3 days, HT295M12; type: cell-based; conditions: Column B=Cysteamine 1 mg/ml (FIG. 19)
Protocol: (§1) Mesothelioma (YOU and PET), gastric (KATO-III), Colorectal (LS174T and HT295m21), pancreatic (ASPC-1 and CFPAC) and ovarian (A2780) cell lines were grown in RPMI supplemented with 10% FBS, 100 U/ml penicillin and 100 μg/ml streptomycin. All cells were maintained at 37° C.
(§2) The cytotoxic effects of cysteamine, bromelain and the chemotherapeutic agent cisplatin were assessed. Each agent was administered to the cells either alone or in combination with either or both of the other agents. All cells were treated for 72 hours with the reagents and the cell populations were assessed using the SRB assay. Where possible, IC50 and ICmax were calculated.
Data from two independent experiments are represented as mean±SD (6 replicates for each treatment group).

[3] = tested on: MKN45 gastric cancer cells; assay: Proliferation, SRB assay, 72 hour culture, MKN45; type: cell-based, human; conditions: combination at the highest concentrations tested
Protocol: (§3) 5000 cells of each cell line were plated in 96 well plates and grown for 48 hrs at 37° C. in humidified CO2 incubator. After this the medium was replaced with drugs, bromelain, cysteamine and cisplatin in alone or in various combinations. Control wells had medium only. Plates were further incubated for 72 hrs. At the end of incubation proliferation was determined by SRB assay.
(§4) Materials and Method: • 0.4% (w/v) SRB: 1.0 g SRB— Sulforhodamine B sodium salt—(#S1402, SIGMA) in 250 ml of 1% acetic acid (stored at room temperature) • 10% (w/v) TCA: 50 g of Trichloroacetic acid (#T9159, SIGMA) in 500 ml of Milli-Q water (stored at 4° c.) • 10 mM Tris Base: 0.6055 g Tris (Trizma® base, #T6066, SIGMA) in 500 ml of Milli-Q water (stored at 4° c.) • 1% acetic acid: 10 ml of acetic acid in 1000 ml of Milli-Q water.
(§5) 1. After an incubation period of 72 hours, the old medium was discarded and cells were fixed with 200 μl of 10% (w/v) ice-cold TCA (trichloroacetic acid) for 30 minutes at 4° C.
(§6) 2. The plate was washed in distilled water 5 times.
(§7) 3. 100 μl of 0.4% (w/v) sulphorhodamine (SRB) solution was added to each well of the dry 96-well plates and they were allowed staining at room temperature for 10 mins.
4. […]
(§8) 6. The plate was read in a microplate reader (PowerWaveX, BIO-TEK instruments, Inc, USA) with the working wavelength 570 nm. […]

[4] = tested on: HT29 colorectal cancer cells; assay: Proliferation, SRB assay, 72 hour culture, HT29; type: cell-based; conditions: individually or in combination
Protocol: as §3, §4, §5, §6, §7
4. […]
as §8

[5] = tested on: YOU mesothelioma cells; assay: Cell viability, SRB assay, 72 h, YOU cells; type: cell-based; conditions: Cysteamine single agent
Protocol: as §3, with “assay. […]” for “assay.”
as §8
(§9) The cytotoxic effects of cysteamine, bromelain and the chemotherapeutic agent cisplatin were assessed. […] All cells were treated for 72 hours with the reagents and the cell populations were assessed using the SRB assay. Where possible, IC50 and ICmax were calculated.
(§10) Using Chou and Tallarida Method (Tallarida R J. The interaction index: a measure of drug synergism. Pain 2002; 98: 163-168), the Interaction index (γ) was evaluated for a combination of 2 and 3 drugs (γ=1 (additive) (ADD); γ=<1 (synergistic) (SYN) and γ=>1 (sub-additive) (SUB)).

[6] = tested on: hard mucin from PMP patients; assay: Disintegration of hard PMP mucin (weight of remnant mucin); type: biochemical, human; conditions: 50 mM cysteamine, alone or with 50 μg/ml bromelain; 37°C, 3 hours
[7] = tested on: soft mucin from PMP patients; assay: Disintegration of soft PMP mucin (weight of remnant mucin after incubation with the agents); type: biochemical, human; conditions: for effect of individual agents on mucin weight over time: Bromelain 300 & 200 μg/ml, NAC 250 mM, Cysteamine 200 mM alone, 0.5-3 h 37°C; for Percentage Disintegration of Mucin Samples: 0 μg/ml BR, negative = gain in weight
Protocol: Mucin samples from PMP patients were collected and stored under sterile conditions at −80° C. For experiments, the mucin was thawed to room temperature before use. One gram of soft mucin was transferred to a 50 ml centrifuge tube containing 10 ml of either 0.1 M TRIS buffer (pH. 7.0)—controls or similar arrangement containing various concentrations of cysteamine, bromelain or a mixture of the latter two reagents. The concentrations of bromelain investigated ranged from 100-300 μg/ml whilst for cysteamine it was 12.5, 25, 50, 100 and 200 mM. Stock solutions were prepared under sterile conditions in TRIS buffer pH adjusted to 7.0 using 0.1 M Sodium Hydroxide or 0.1 M Hydrochloric acid and the required quantities were added to the respective centrifuge tubes containing the mucin. The tubes were then transferred to a shaking water bath at 37° C. for 2 hours.
At the end of incubation, the remnant mucin was retrieved and weighed. The experiment was carried out using triplicate tubes and readings averaged. All experiments were performed in triplicate.
To a 50 ml centrifuge tube containing 1 g of mucin was added 10 ml of TRIS pH. 7.0 containing 300 μg/ml bromelain+250 mM NAC. Similarly, to 1 g of mucin was added 10 ml of TRIS buffer containing 200 μg/ml bromelain+200 mM cysteamine. For each time interval (0.5, 1.0, 1.5, 2.0, 2.5 and 3.0 h), a total of 6 tubes in triplicate were prepared. The controls contained, TRIS, Bromelain (300 μg/ml & 200 μg/ml), NAC (250 mM) and Cysteamine (200 mM) with mucin (also prepared for each time interval, in triplicates).
The tubes were incubated at 37° C., in a shaker water bath, sample tubes were retrieved at time interval of 0.5 hour and remnant mucin was carefully retrieved and weighed. Percentage weight lost was calculated as follows:
Percentage weight lost (disintegration)=[mucin weight (at 0 hr)−mucin weight (2 or 3 hr)]/mucin weight (at 0 hr).
The experiment was set up as outlined above in Examples 1 and 2 above, however using 10, 20, 40, 60, 80 & 100 μg/ml bromelain with varying concentrations of cysteamine (10, 20, 30, 40 & 50 mM) and the incubation was carried out at 37° C. in a shaker for 3 hours. The controls contained TRIS buffer, 10, 20, 40, 60, 80 & 100 μg/ml bromelain and 10, 20, 30, 40 & 50 mM cysteamine. Each tube was prepared in triplicate and readings averaged.
Experiments were set up as before using 1 g of mucin in a 50 ml centrifuge tube containing either TRIS buffer (pH 7.0), 50 μg/ml bromelain, 50 mM cysteamine or a combination of the last two agents. Six samples from each grades of mucin (soft, semi-hard and hard) were chosen for the experiment and the tubes were incubated in a shaker water bath at 37° C. for duration of 3 hours. The remnant mucin were carefully retrieved and weighed.

[8] = tested on: PET mesothelioma cells; assay: Cell viability, SRB assay, 72 h, PET cells; type: cell-based; conditions: Cysteamine single agent
Protocol: as §3, with “assay. […]” for “assay.”
as §8, §9, §10

[9] = tested on: human gastric cancer cell line KATO-III; assay: Cell viability, SRB assay, 3 days, KATO-III; type: cell-based; conditions: Cysteamine only
Protocol: as §1, §2
Cells were subjected to various treatment regimens as indicated for 3 days before SRB assays were performed. Data are represented as mean±SD (6 replicates for each treatment group).

[10] = FIG. 22A, 0.25 mg/ml, lowest of 0.25-1 mg/ml
[11] = FIG. 22A, 1 mg/ml, highest of 0.25-1 mg/ml
[12] = FIG. 22A, middle concentration of 0.25-1 mg/ml, value not given
[13] = FIG. 22B, 0.25 mg/ml, lowest of 0.25-1 mg/ml
[14] = FIG. 22B, 1 mg/ml, highest of 0.25-1 mg/ml
[15] = FIG. 22B, middle concentration of 0.25-1 mg/ml, value not given
[16] = FIG. 22C, 0.25 mg/ml, lowest of 0.25-1 mg/ml
[17] = FIG. 22C, 1 mg/ml, highest of 0.25-1 mg/ml
[18] = FIG. 22C, middle concentration of 0.25-1 mg/ml, value not given

Row | Compound | Mean Diff. (Holm-Sidak's multiple comparisons test), control vs. treatment [1, 10] | Mean Diff. (Holm-Sidak's multiple comparisons test), control vs. treatment [1, 11] | Mean Diff. (Holm-Sidak's multiple comparisons test), control vs. treatment [1, 12] | Mean Diff. (Holm-Sidak's multiple comparisons test), control vs. treatment [1, 13] | Mean Diff. (Holm-Sidak's multiple comparisons test), control vs. treatment [1, 14] | Mean Diff. (Holm-Sidak's multiple comparisons test), control vs. treatment [1, 15] | Mean Diff. (Holm-Sidak's multiple comparisons test), control vs. treatment [1, 16] | Mean Diff. (Holm-Sidak's multiple comparisons test), control vs. treatment [1, 17] | Mean Diff. (Holm-Sidak's multiple comparisons test), control vs. treatment [1, 18] | effect of individual agents on mucin weight over time [7] | further results
1 | NCCS [Cysteamine dihydrochloride] | 55.20 | 94.04 | 74.31 |  |  |  |  |  |  |  | 
2 | NCCS [Cysteamine, cysteamine] | 40.75 | 87.12 | 61.62 | 30.75 | 81.49 | 53.01 | 55.93 | 88.77 | 70.70 | only showed hydration initially, with subsequent slight disintegration and hydration | Mean Diff., Column A (control) vs. Column B [2]: 9.610; effect on in vitro growth [3]: no or little effect; inhibition of growth [4]: no or little effect; IC50 (as Cysteamine) [5]: 560 µg/mL; ICmax ([5]; at 11.3 mg/ml cysteamine): 94% at 11.3 mg/ml; hydration of hard mucin [6]: dramatic percentage of hydration; effect of single agents on mucin weight ([7]; Bromelain 100, 200, 300 μg/ml or Cysteamine 12.5-200 mM as single agents, 2 h 37°C): only showed the mucin gaining weight, indicating hydration; Percentage Disintegration of Mucin Samples ([7]; CIS 12.5 mM, 2 h 37°C): −117%; Percentage Disintegration of Mucin Samples ([7]; CIS 25 mM, 2 h 37°C): −115%; Percentage Disintegration of Mucin Samples ([7]; CIS 50 mM, 2 h 37°C): −100%; Percentage Disintegration of Mucin Samples ([7]; CIS 100 mM, 2 h 37°C): −111%; Percentage Disintegration of Mucin Samples ([7]; CIS 200 mM, 2 h 37°C): −86%; IC50 (as Cysteamine) [8]: 781 µg/mL; ICmax ([8]; at 11.3 mg/ml cysteamine): 85% at 11.3 mg/ml; Mean Diff., Column A (control) vs. Column B ([9]; 0.3 mg/ml (FIG. 20B, Table 14B)): −1.313; Mean Diff., Column A (control) vs. Column B ([9]; 0.5 mg/ml (FIG. 20A, Table 14A)): 21.10; Mean Diff., Column A (control) vs. Column B ([9]; 0.5 mg/ml (FIG. 20C, Table 14C)): 49.64
3 | N[C@@H](CS)C(=O)O [L-Cysteine] |  |  |  | 10.30 | 51.11 | 25.30 |  |  |  |  | 
4 | N[C@@H](CCC(=O)N[C@@H](CS)C(=O)NCC(=O)O)C(=O)O [L-Glutathione reduced] |  |  |  |  |  |  | 25.68 | 32.71 | 19.54 |  | 
5 | CC(=O)N[C@@H](CS)C(=O)O [NAC, N-acetyl cysteine] | 20.45 | 23.92 | 18.80 | 15.35 | 17.73 | 9.290 | 25.62 | 30.51 | 18.03 | only showed hydration initially, with subsequent slight disintegration and hydration | 

Source: patent publication US11364286B2, “Compositions and methods for the treatment of diseases involving mucin” (priority 2015, dated 2022)
